According to BigSolDB 2.1:

CC(=O)c1ccc(O)cc1O
solubility (mole fraction)
Conditions	in benzene	in ethanol	in ethyl acetate	in isobutanol	in isopropanol	in methanol	in methyl acetate	in n-butanol	in n-propanol	in n-propyl acetate
293.15 K	0.00045	0.118	0.118	0.0782	0.13	0.103	0.114	0.104	0.106	0.11
298.15 K	0.00055	0.131	0.129	0.091	0.144	0.117	0.126	0.118	0.118	0.12
303.15 K	0.00067	0.146	0.139	0.107	0.162	0.132	0.141	0.133	0.135	0.129
308.15 K	0.00082	0.162	0.152	0.122	0.178	0.148	0.155	0.153	0.151	0.143
313.15 K	0.00102	0.177	0.166	0.139	0.194	0.163	0.168	0.172	0.167	0.155
318.15 K	0.00125	0.195	0.18	0.156	0.211	0.183	0.182	0.191	0.18	0.171
323.15 K	0.0015	0.216	0.199	0.18	0.231	0.203	0.201	0.214	0.195	0.189
328.15 K	0.00178	0.235	0.216	0.199	0.25	0.228	0.212	0.233	0.216	0.205
333.15 K	0.00207	0.257	0.236	0.221	0.271	0.253	–	0.253	0.233	0.222
